The compounds below were run on HCV 1b-377-neo replicon cells (assay: HCV Replicon assay, HCV 1b-377-neo replicon cells). Settings: Hepatitis C virus, read-out: EC50 against HCV 1b (Activity or Range).
Type: cell-based, HCV 1b genotype
Method: An HCV Replicon assay was utilized in the present disclosure, and was prepared, conducted and validated as described in commonly owned PCT/US2006/022197 and in O'Boyle et. al. Antimicrob Agents Chemother. 2005 April; 49(4):1346-53.
HCV 1b-377-neo replicon cells were used to test the currently described compound series as well as cells resistant to compound A containing a Y2065H mutation in NS5A (described in application PCT/US2006/022197). The compounds tested were determined to have more than 10-fold less inhibitory activity on cells containing the mutation than wild-type cells indicating a related mechanism of action between the two compound series. Thus, the compounds of the present disclosure can be effective to inhibit the function of the HCV NS5A protein and are understood to be as effective in combinations as previously described in application PCT/US2006/022197 and commonly owned WO/O4014852. Further, the compounds of the present disclosure can be effective against the HCV 1b genotype. It should also be understood that the compounds of the present disclosure can inhibit multiple genotypes of HCV. […] In one embodiment compounds of the present disclosure are active against the 1a, 1b, 2a, 2b, 3a, 4a, and 5a genotypes.

Compound	EC50
COC(=O)N[C@H](C(=O)N1[C@@H]2C[C@@H]2C[C@H]1c1nc2c([nH]1)CCc1cc(-c3ccc(-c4[nH]c([C@@H]5C[C@H]6C[C@H]6N5C(=O)[C@@H](NC(=O)OC)C(C)C)nc4CC(F)(F)F)cc3)ccc1-2)C(C)C [Example 22r.3]	0.003 nM
COC(=O)N[C@H](C(=O)N1CCC[C@H]1c1ncc(-c2ccc(-c3ccc4c(c3)CCc3[nH]c([C@@H]5CCCN5C(=O)[C@@H](NC(=O)OC)[C@@H](C)OC)nc3-4)cc2F)[nH]1)[C@H](C)OC [Example 22s.c]	0.02 nM
COC(=O)N[C@H](C(=O)N1CC(F)(F)C[C@H]1c1ncc(-c2ccc(-c3ccc4c(c3)CCc3[nH]c([C@@H]5CCCN5C(=O)[C@@H](NC(=O)OC)C(C)C)nc3-4)cc2)[nH]1)C(C)C [Example 22t]	0.001 nM
COC(=O)N[C@@H](C(=O)N1CCC[C@H]1c1nc2c(ccc3cc(-c4ccc5c(ccc6nc([C@@H]7CCCN7C(=O)[C@H](NC(=O)OC)c7ccccc7)[nH]c65)c4)ccc32)[nH]1)c1ccccc1 [Example 22u.2b]	0.02 nM
CCN(CC)[C@@H](C(=O)N1CCC[C@H]1c1ncc(-c2ccc(-c3ccc4c(ccc5[nH]c([C@@H]6CCCN6C(=O)[C@@H](c6ccccc6)N(CC)CC)nc54)c3)cc2)[nH]1)c1ccccc1 [Example 22u.a]	0.01 nM

Same assay, conditions: Hepatitis C virus, read-out: EC50 against HCV 1b (Activity or Range), range class

Compound	EC50
COC(=O)N[C@H](C(=O)N1CCC[C@H]1c1nc2c([nH]1)CCc1cc(-c3ccc4c(c3)CCc3[nH]c([C@@H]5CCCN5C(=O)[C@@H](NC(=O)OC)C(C)C)nc3-4)ccc1-2)C(C)C [Example 22r.4]	0.001 to 0.1 nM
COC(=O)N[C@H](C(=O)N1[C@@H]2C[C@@H]2C[C@H]1c1nc2c([nH]1)CCc1cc(-c3ccc4c(c3)CCc3[nH]c([C@@H]5C[C@H]6C[C@H]6N5C(=O)[C@@H](NC(=O)OC)C(C)C)nc3-4)ccc1-2)C(C)C [Example 22r.5]	0.001 to 0.1 nM
CCN(CC)[C@@H](C(=O)N1CCC[C@H]1c1ncc(-c2ccc(-c3ccc4c(c3)CCc3[nH]c([C@@H]5CCCN5C(=O)[C@@H](c5ccccc5)N(CC)CC)nc3-4)cc2)[nH]1)c1ccccc1 [Example 22r.a]	0.001 to 0.1 nM
COC(=O)N[C@H](C(=O)N1CCC[C@H]1c1ncc(-c2ccc(-c3ccc4c(c3)OCc3[nH]c([C@@H]5CCCN5C(=O)[C@@H](NC(=O)OC)C(C)C)nc3-4)cc2)[nH]1)C(C)C [Example 22r.b]	0.001 to 0.1 nM
COC(=O)N[C@H](C(=O)N1CCC[C@H]1c1ncc(-c2ccc(-c3ccc4c(c3)CCc3[nH]c([C@@H]5CCCN5C(=O)[C@@H](NC(=O)OC)C(C)C)nc3-4)cc2)[nH]1)C(C)C [Example 22r]	0.001 to 0.1 nM
COC(=O)N[C@H](C(=O)N1[C@@H]2C[C@@H]2C[C@H]1c1ncc(-c2ccc(-c3ccc4c(c3)CCc3[nH]c([C@@H]5C[C@H]6C[C@H]6N5C(=O)[C@@H](NC(=O)OC)C(C)C)nc3-4)cc2F)[nH]1)C(C)C [Example 22s.1]	0.001 to 0.1 nM
CCN(CC)[C@@H](C(=O)N1[C@@H]2C[C@@H]2C[C@H]1c1ncc(-c2ccc(-c3ccc4c(c3)CCc3[nH]c([C@@H]5C[C@H]6C[C@H]6N5C(=O)[C@@H](c5ccccc5)N(CC)CC)nc3-4)cc2F)[nH]1)c1ccccc1 [Example 22s.1a]	0.001 to 0.1 nM
COC(=O)N[C@@H](C(=O)N1[C@@H]2C[C@@H]2C[C@H]1c1ncc(-c2ccc(-c3ccc4c(c3)CCc3[nH]c([C@@H]5C[C@H]6C[C@H]6N5C(=O)[C@H](NC(=O)OC)c5ccccc5)nc3-4)cc2F)[nH]1)c1ccccc1 [Example 22s.1b]	0.001 to 0.1 nM
CCN(CC)[C@@H](C(=O)N1CCC[C@H]1c1ncc(-c2ccc(-c3ccc4c(c3)CCc3[nH]c([C@@H]5CCCN5C(=O)[C@@H](c5ccccc5)N(CC)CC)nc3-4)cc2F)[nH]1)c1ccccc1 [Example 22s.a]	0.001 to 0.1 nM
COC(=O)N[C@H](C(=O)N1CCC[C@H]1c1ncc(-c2ccc(-c3ccc4c(c3)CCc3[nH]c([C@@H]5CCCN5C(=O)[C@@H](NC(=O)OC)C(C)C)nc3-4)cc2F)[nH]1)C(C)C [Example 22s]	0.001 to 0.1 nM
COC(=O)N[C@H](C(=O)N1CCC[C@H]1c1ncc(-c2ccc(-c3ccc4c(c3)CCc3[nH]c([C@@H]5CC(F)(F)CN5C(=O)[C@@H](NC(=O)OC)C(C)C)nc3-4)cc2)[nH]1)C(C)C [Example 22t.1]	0.001 to 0.1 nM
CCN(CC)[C@@H](C(=O)N1CCC[C@H]1c1ncc(-c2ccc(-c3ccc4c(c3)CCc3[nH]c([C@@H]5CC(F)(F)CN5C(=O)[C@@H](c5ccccc5)N(CC)CC)nc3-4)cc2)[nH]1)c1ccccc1 [Example 22t.1a]	0.001 to 0.1 nM
CCN(CC)[C@@H](C(=O)N1CC(F)(F)C[C@H]1c1ncc(-c2ccc(-c3ccc4c(c3)CCc3[nH]c([C@@H]5CCCN5C(=O)[C@@H](c5ccccc5)N(CC)CC)nc3-4)cc2)[nH]1)c1ccccc1 [Example 22t.a]	0.001 to 0.1 nM
COC(=O)N[C@H](C(=O)N1[C@@H]2C[C@@H]2C[C@H]1c1ncc(-c2ccc(-c3ccc4c(ccc5[nH]c([C@@H]6C[C@H]7C[C@H]7N6C(=O)[C@@H](NC(=O)OC)C(C)C)nc54)c3)cc2)[nH]1)C(C)C [Example 22u.1]	0.001 to 0.1 nM
COC(=O)N[C@H](C(=O)N1CCC[C@H]1c1nc2c(ccc3cc(-c4ccc5c(ccc6nc([C@@H]7CCCN7C(=O)[C@@H](NC(=O)OC)C(C)C)[nH]c65)c4)ccc32)[nH]1)C(C)C [Example 22u.2]	0.001 to 0.1 nM
CCN(CC)[C@@H](C(=O)N1CCC[C@H]1c1nc2c(ccc3cc(-c4ccc5c(ccc6nc([C@@H]7CCCN7C(=O)[C@@H](c7ccccc7)N(CC)CC)[nH]c65)c4)ccc32)[nH]1)c1ccccc1 [Example 22u.2a]	0.001 to 0.1 nM
COC(=O)N[C@H](C(=O)N1[C@@H]2C[C@@H]2C[C@H]1c1nc2c([nH]1)-c1ccc(-c3ccc4c(ccc5[nH]c([C@@H]6C[C@H]7C[C@H]7N6C(=O)[C@@H](NC(=O)OC)C(C)C)nc54)c3)cc1CC2)C(C)C [Example 22u.4]	0.001 to 0.1 nM
COC(=O)N[C@H](C(=O)N1[C@@H]2C[C@@H]2C[C@H]1c1nc2c(ccc3cc(-c4ccc5c(ccc6nc([C@@H]7C[C@H]8C[C@H]8N7C(=O)[C@@H](NC(=O)OC)C(C)C)[nH]c65)c4)ccc32)[nH]1)C(C)C [Example 22u.5]	0.001 to 0.1 nM
COC(=O)N[C@@H](C(=O)N1[C@@H]2C[C@@H]2C[C@H]1c1nc2c(ccc3cc(-c4ccc5c(ccc6nc([C@@H]7C[C@H]8C[C@H]8N7C(=O)[C@H](NC(=O)OC)c7ccccc7)[nH]c65)c4)ccc32)[nH]1)c1ccccc1 [Example 22u.5a]	0.001 to 0.1 nM
COC(=O)N[C@H](C(=O)N1CCC[C@H]1c1ncc(-c2ccc(-c3ccc4c(ccc5[nH]c([C@@H]6CCCN6C(=O)[C@@H](NC(=O)OC)[C@@H](C)OC)nc54)c3)cc2)[nH]1)[C@H](C)OC [Example 22u.b]	0.001 to 0.1 nM
COC(=O)N[C@H](C(=O)N1CCC[C@H]1c1ncc(-c2ccc(-c3ccc4c(ccc5[nH]c([C@@H]6CCCN6C(=O)[C@@H](NC(=O)OC)C(C)C)nc54)c3)cc2)[nH]1)C(C)C [Example 22u]	0.001 to 0.1 nM
COC(=O)N[C@H](C(=O)N1[C@@H]2C[C@@H]2C[C@H]1c1ncc(-c2ccc(-c3ccc4c(ccc5[nH]c([C@@H]6C[C@H]7C[C@H]7N6C(=O)[C@@H](NC(=O)OC)C(C)C)nc54)c3)cc2F)[nH]1)C(C)C [Example 22v.1]	0.001 to 0.1 nM
CCN(CC)[C@@H](C(=O)N1[C@@H]2C[C@@H]2C[C@H]1c1ncc(-c2ccc(-c3ccc4c(ccc5[nH]c([C@@H]6C[C@H]7C[C@H]7N6C(=O)[C@@H](c6ccccc6)N(CC)CC)nc54)c3)cc2F)[nH]1)c1ccccc1 [Example 22v.1a]	0.001 to 0.1 nM
COC(=O)N[C@@H](C(=O)N1[C@@H]2C[C@@H]2C[C@H]1c1ncc(-c2ccc(-c3ccc4c(ccc5[nH]c([C@@H]6C[C@H]7C[C@H]7N6C(=O)[C@H](NC(=O)OC)c6ccccc6)nc54)c3)cc2F)[nH]1)c1ccccc1 [Example 22v.1b]	0.001 to 0.1 nM
CCN(CC)[C@@H](C(=O)N1CCC[C@H]1c1ncc(-c2ccc(-c3ccc4c(ccc5[nH]c([C@@H]6CCCN6C(=O)[C@@H](c6ccccc6)N(CC)CC)nc54)c3)cc2F)[nH]1)c1ccccc1 [Example 22v.a]	0.101 to 0.999 nM
COC(=O)N[C@H](C(=O)N1CCC[C@H]1c1ncc(-c2ccc(-c3ccc4c(ccc5[nH]c([C@@H]6CCCN6C(=O)[C@@H](NC(=O)OC)C(C)C)nc54)c3)cc2F)[nH]1)C(C)C [Example 22v]	0.001 to 0.1 nM
COC(=O)N[C@H](C(=O)N1CCC[C@H]1c1ncc(-c2ccc(-c3ccc4c(ccc5[nH]c([C@@H]6CC(F)(F)CN6C(=O)[C@@H](NC(=O)OC)C(C)C)nc54)c3)cc2)[nH]1)C(C)C [Example 22w.1]	0.001 to 0.1 nM
CCN(CC)[C@@H](C(=O)N1CCC[C@H]1c1ncc(-c2ccc(-c3ccc4c(ccc5[nH]c([C@@H]6CC(F)(F)CN6C(=O)[C@@H](c6ccccc6)N(CC)CC)nc54)c3)cc2)[nH]1)c1ccccc1 [Example 22w.1a]	0.001 to 0.1 nM
COC(=O)N[C@H](C(=O)N1CC(F)(F)C[C@H]1c1ncc(-c2ccc(-c3ccc4c(ccc5[nH]c([C@@H]6CC(F)(F)CN6C(=O)[C@@H](NC(=O)OC)C(C)C)nc54)c3)cc2)[nH]1)C(C)C [Example 22w.2]	0.001 to 0.1 nM
CCN(CC)[C@@H](C(=O)N1CC(F)(F)C[C@H]1c1ncc(-c2ccc(-c3ccc4c(ccc5[nH]c([C@@H]6CC(F)(F)CN6C(=O)[C@@H](c6ccccc6)N(CC)CC)nc54)c3)cc2)[nH]1)c1ccccc1 [Example 22w.2a]	0.001 to 0.1 nM
